Experiments:
[1] = absolute recovery over vacuum-assisted evaporative concentration; higher = better recovery; conditions: enrichment method: VEC
Procedure, shortened: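 Standards were spiked into water samples before concentration, after concentration or not at all; volumes were 6 mL influent, 15 mL effluent and 60 mL surface or nanopure water. Spiking levels were 200 ng/L for nanopure and surface water and 1000 ng/L for wastewater, adjusted by class and compound. After evaporation at 55 °C and 20 mbar to about 0.3 mL, samples were brought to 0.4 mL, centrifuged, given internal standards and analysed by LC-HRMS/MS. Absolute recovery equals (response ratio pre − unspiked)/(post − unspiked) × 100, based on averages of ≥ 2 replicates.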

[2] = absolute recovery over mixed-bed multilayer solid-phase extraction; higher = better recovery; conditions: enrichment method: SPE
Procedure, shortened: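 Wastewater (100–250 mL, adjusted to pH 6.5 and glass-fibre filtered) or 1000 mL unfiltered nanopure water was loaded on a three-layer mixed-bed cartridge and eluted with basic then acidic ethyl acetate/methanol. Standards were spiked before extraction, after it, or not at all, at 200 ng/L (water) or 1000 ng/L (wastewater), with class exceptions. Internal standards were added afterwards, then LC-HRMS/MS ran in both ionisation modes. Absolute recovery compares background-corrected response ratios of pre- versus post-spiked samples, averaged over at least two replicates.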

[3] = LC retention time (Atlantis T3, 5-95% MeOH gradient, 0.1% formic acid); higher = more retained / less polar
Procedure, shortened: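 Retention times were recorded for reference standards (purity ≥ 95%) on a polar reversed-phase C18 column (Atlantis T3, 3 × 150 mm, 3 μm) at 0.3 mL/min. Elution used water and methanol, each with 0.1% formic acid, in a gradient from 5 to 95% methanol over 17.5 min. Detection was by high-resolution tandem mass spectrometry on a QExactive Plus, with positive and negative electrospray in separate runs. Peaks were found and integrated in TraceFinder (5 ppm tolerance, at least three points per peak) and then checked by hand.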

Structure (SMILES) | absolute recovery ([1]; wastewater effluent) [%] | absolute recovery ([1]; wastewater influent) [%] | absolute recovery ([2]; surface water) [%] | absolute recovery ([2]; wastewater influent) [%] | LC retention time [3] [min] | absolute recovery ([2]; nanopure water) [%] | absolute recovery ([2]; wastewater effluent) [%]
C[NH+]=C([N-][N+](=O)[O-])NCc1cnc(Cl)s1 [Clothianidin] | 104 | 106 | 95.6 | 94.1 | 13.8 |  | 
Clc1ccccc1C(c1ccccc1)(c1ccccc1)n1ccnc1 [Clotrimazol] | 111 | 110 | 90.3 | 90.1 | 16.6 | 93.4 | 85.9
COC(=O)C1C(OC(=O)c2ccccc2)CC2CCC1[NH+]2C (stereo not drawn) [Cocaine] | 71.1 | 62.2 | 96.4 | 94.5 | 12.2 | 97.2 | 93.8
COc1ccc2c3c1OC1C(O)C=CC4C(C2)[NH+](C)CCC341 (stereo not drawn) [Codein] | 104 | 102 | 92.6 | 93 | 9.16 | 90.2 | 91.7
Cn1c(=O)c2c(ncn2C)n(C)c1=O [Coffein] | 99.7 |  |  |  | 12.5 | 96.4 | 94.5
CC12CCC(=O)C=C1CCC1C2C(O)CC2(C)C(C(=O)CO)CCC12 (stereo not drawn) [Corticosteron] | 111 | 55.6 | 71.9 | 89.1 | 19 | 87.8 | 71.8
CC12CCC(=O)C=C1CCC1C2C(=O)CC2(C)C1CCC2(O)C(=O)CO (stereo not drawn) [Cortison] | 99.8 | 54.6 | 75.6 | 95.2 | 17.5 | 74.9 | 74.8
CN1C(=O)CCC1c1cccnc1 (stereo not drawn) [Cotinine] | 100 |  | 135 |  | 6.11 | 109 | 112
CC=CC(=O)N(CC)c1ccccc1C [Crotamiton] | 59.5 | 70.2 | 70.5 | 91.5 | 19.3 | 78.6 | 75.3
CC=CC(=O)N(CC)C(CC)C(=O)N(C)C (stereo not drawn) [Crotethamide] | 97.5 | 94.6 | 94.6 | 121 | 15.9 | 106 | 86.1
Cc1ccc(-c2c(Cl)nc(C#N)n2S(=O)(=O)N(C)C)cc1 [Cyazofamid] | 99.5 | 104 | 64.6 | 63.2 | 20.3 | 66.4 | 58
O=S(=O)([O-])NC1CCCCC1 [Cyclamat] | 104 |  |  |  | 14.3 | 95.8 | 29
O=P1(N(CCCl)CCCl)NCCCO1 (stereo not drawn) [Cyclophosphamid] | 104 | 100 | 96.4 | 94.5 | 16.1 | 98.1 | 93.9
CCCC(NOCC)=C1C(=O)CC(C2CCCSC2)CC1=O (stereo not drawn) [Cycloxydim] | 87.3 | 76.6 | 78.4 | 92.2 | 22.3 | 73.9 | 76.3
CN(C)C(=O)NC1CCCCCCC1 [Cycluron] | 92.5 | 106 | 91.2 | 94.2 | 18.8 | 91.4 | 89.2
O=C(Cc1ccccc1)NC(=NOCC1CC1)c1c(C(F)(F)F)ccc(F)c1F [Cyflufenamid] | 95.4 | 117 | 106 | 84.3 | 20.9 | 91.9 | 106
CCNC(=O)NC(=O)C(C#N)=NOC [Cymoxanil] | 53.4 | 69.8 | 83.5 | 115 | 15.2 | 98.4 | 87.9
CC(C1CC1)C(O)(Cn1cncn1)c1ccc(Cl)cc1 (stereo not drawn) [Cyproconazol] | 92.9 | 95.8 | 88.2 | 93.5 | 20.1 | 99.4 | 87.6
Cc1cc(C2CC2)nc(Nc2ccccc2)n1 [Cyprodinil] | 86.9 | 88.2 | 93.8 | 89.9 | 19.8 | 100 | 92.5
Nc1nc(N)[nH+]c(NC2CC2)n1 [Cyromazin] | 101 | 104 |  | 91.5 | 7.27 | 83.7 | 88.1
Nc1ccn(C2OC(CO)C(O)C2O)c(=O)n1 (stereo not drawn) [Cytarabin] | 89.3 |  | 112 | 64.6 | 15.6 | 103 | 104
C[NH2+]CCCC(C#N)(c1ccc(OC)c(OC)c1)C(C)C (stereo not drawn) [D617] | 101 | 100 | 84.5 | 81.5 | 14 | 89.5 | 86.9
CN(C)S(=O)(=O)Nc1ccccc1 [DMSA (=N-N-Dimethylaminosulfanilid)] | 100 | 95.6 | 95.5 | 136 | 15.9 | 100 | 89.9
C#CC[N+](C)([O-])C(C)Cc1ccccc1 (stereo not drawn) [Deprenyl-N-Oxide] | 102 | 106 | 71.5 | 77.3 | 12.2 | 68.6 | 70.5
CC1CC2C3CCC4=CC(=O)C=CC4(C)C3(F)C(O)CC2(C)C1(O)C(=O)CO (stereo not drawn) [Dexamethason] | 106 | 105 | 86.2 | 94 | 18.7 | 92.3 | 91.2
COc1ccc2c(c1)C13CCCCC1C(C2)[NH+](C)CC3 (stereo not drawn) [Dextromethorphan] | 102 | 107 | 94.5 | 77.6 | 14.5 | 86.8 | 93.4
CC(=O)Nc1c(I)c(NC(C)=O)c(I)c(C(=O)[O-])c1I [Diatrizoate (=Amidotrizoic-acid)] | 100 | 102 | 74.5 | 65.1 | 10 | 69 | 73.8
CN1C(=O)CN=C(c2ccccc2)c2cc(Cl)ccc21 [Diazepam] | 105 | 99.2 | 94.9 | 95.7 | 19.5 | 97.6 | 93.6

Structure (SMILES) | absolute recovery ([1]; wastewater effluent) [%] | absolute recovery ([1]; wastewater influent) [%] | absolute recovery ([2]; surface water) [%] | absolute recovery ([2]; wastewater influent) [%] | LC retention time [3] [min] | absolute recovery ([2]; nanopure water) [%] | absolute recovery ([2]; wastewater effluent) [%]
CCOP(=S)(OCC)Oc1cc(C)nc(C(C)C)n1 [Diazinon] | 27.1 | 18.9 | 86.9 | 82.8 | 21.1 | 77.6 | 80.5
CCCCOc1cc(C(=O)NCC[NH+](CC)CC)c2ccccc2n1 [Dibucaine] | 92 | 136 | 81.6 |  | 16.2 | 99.8 | 93
COc1c(Cl)ccc(Cl)c1C(=O)[O-] [Dicamba] | 104 | 106 | 94 | 91.2 | 19.3 | 95.6 | 93.5
CC(Oc1ccc(Cl)cc1Cl)C(=O)[O-] (stereo not drawn) [Dichlorprop] | 104 | 99.8 | 95.4 | 87.9 | 20.1 | 97.8 | 
COP(=O)(OC)OC=C(Cl)Cl [Dichlorvos] | 34.5 | 39.6 | 47.3 | 87.4 | 16.8 | 63.4 | 60
O=C([O-])Cc1ccccc1Nc1c(Cl)cccc1Cl [Diclofenac] |  | 98.5 |  |  | 20.8 | 102 | 
O=c1[nH+]c[n-]c2c1ncn2C1CCC(CO)O1 (stereo not drawn) [Didanosin] | 84.9 |  | 85.1 | 102 | 9.79 | 107 | 83.5
CC12CCC3=C4CCC(=O)C=C4CCC3C1CCC2(O)CC#N (stereo not drawn) [Dienogest] | 97.4 | 92.2 | 81.6 | 87 | 18.1 | 97.4 | 79
CCOc1ccc(NC(=O)OC(C)C)cc1OCC [Diethofencarb] | 104 | 106 | 103 | 93.8 | 19.2 | 98.1 | 95.6
CC1COC(Cn2cncn2)(c2ccc(Oc3ccc(Cl)cc3)cc2Cl)O1 (stereo not drawn) [Difenoconazol] | 100 | 126 | 100 | 70.9 | 21.4 | 90.2 | 102
O=C(NC(=O)c1c(F)cccc1F)Nc1ccc(Cl)cc1 [Diflubenzuron] | 112 | 147 | 138 | 67.9 | 20.5 | 101 | 114
O=C(Nc1ccc(F)cc1F)c1cccnc1Oc1cccc(C(F)(F)F)c1 [Diflufenican] | 106 | 101 | 92.4 | 87.2 | 21.4 | 96.6 | 88
COc1ccc2c3c1OC1C(O)CCC4C(C2)[NH+](C)CCC341 (stereo not drawn) [Dihydrocodeine] | 108 | 100 | 107 | 97.7 | 9.1 | 98.5 | 94.1
COc1ccc(C2Sc3ccccc3N(CC[NH+](C)C)C(=O)C2OC(C)=O)cc1 (stereo not drawn) [Diltiazem] | 90.5 | 94.2 | 95.6 | 144 | 15.1 | 89 | 91.9
CN(C)C(=O)Nc1ccc(-n2nc(C(C)(C)C)oc2=O)c(Cl)c1 [Dimefuron] | 108 | 103 | 98.3 | 92 | 18.9 | 103 | 100
COCCN(C(=O)CS(=O)(=O)[O-])c1c(C)cccc1C [Dimethachlor-ESA] | 104 | 109 | 102 | 84.4 | 19.9 | 95.5 | 102
COCCN(C(=O)C(=O)[O-])c1c(C)cccc1C [Dimethachlor-OXA] | 109 | 107 | 88 | 87.9 | 18.2 | 96.8 | 92.8
COCCN(C(=O)CCl)c1c(C)cccc1C [Dimethachlor] | 94.3 | 97.7 | 89.9 | 95.7 | 18.8 | 93 | 89.6
COCC(C)N(C(=O)C(=O)[O-])c1c(C)csc1C (stereo not drawn) [Dimethenamid-OXA] | 105 | 108 | 99 | 86.6 | 19.8 | 96.4 | 
COCC(C)N(C(=O)CCl)c1c(C)csc1C (stereo not drawn) [Dimethenamid] | 96 | 92.1 | 92.8 | 92.1 | 19.6 | 94.4 | 91.7
CNC(=O)CSP(=S)(OC)OC [Dimethoat] | 102 | 103 | 90.7 | 92.3 | 14.4 | 93.4 | 93
COc1ccc(C(=CC(=O)N2CCOCC2)c2ccc(Cl)cc2)cc1OC [Dimethomorph] | 116 | 95.7 | 81.4 | 91.4 | 19.5 | 98.4 | 81.4
COC(=O)c1cc(C(=O)OC)cc(S(=O)(=O)[O-])c1 [Dimethyl-5-Sulfoisophthalate] | 108 | 90.7 | 92.9 | 15.6 | 16.1 | 96 | 96.6
CCCCCCCCCCCCCC[N+](C)(C)CCCCCCCCCCCCCC [Dimethylditetradecylammonium (=ATMAC-18)] | 119 | 4.7 |  | 38.7 | 21.6 |  | 55.3
CCC(C)c1cc([N+](=O)[O-])cc([N+](=O)[O-])c1[O-] (stereo not drawn) [Dinoseb] | 94.2 | 91.8 | 82.6 | 123 | 21.5 | 103 | 89.1
C[NH+](C)CCOC(c1ccccc1)c1ccccc1 [Diphenhydramine] | 104 | 103 | 97 | 77.8 | 14.6 | 88.9 | 91.1
CCCC(CCC)(C(=O)[O-])C(=O)O [Dipropylmalonic-acid] | 103 | 109 | 88.7 | 87.9 | 18.2 | 94.4 | 94.7

From the supplement of paper PMC6470124
